# Results from PubChem BioAssay (NCI).
#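 Five concentrations, 48 hours, 96-well plates. GI50 is the concentration that inhibits growth by half. Definition used: TGI = concentration required for complete inhibition of growth.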
# Assays:
# Experiment in all cases: NCI anticancer screen, dose series, 48 h
# [1] = test system: NCI-H226 lung
# [2] = test system: K-562 leukemia
# [3] = test system: TK-10 renal
# [4] = test system: MOLT-4 leukemia
# [5] = test system: CCRF-CEM leukemia
# [6] = test system: IGROV1 ovarian
# [7] = test system: PC-3 prostate
# [8] = test system: MDA-MB-435
# [9] = test system: U251 CNS
# [10] = test system: SNB-75 CNS
# [11] = test system: SR leukemia
# [12] = test system: NCI-H23 lung
# [13] = test system: MCF7 breast
# [14] = test system: MDA-MB-231 breast
# [15] = test system: CAKI-1 renal
# [16] = test system: HCT-116 colon
# [17] = test system: RPMI-8226 leukemia
# [18] = test system: UACC-257 melanoma
# [19] = test system: COLO 205 colon
# [20] = test system: A498 renal
# [21] = test system: UO-31 renal
# [22] = test system: 786-0 renal
# [23] = test system: M14 melanoma
# [24] = test system: SF-539 CNS
# [25] = test system: EKVX NSCLC
# [26] = test system: SF-268 CNS
# [27] = test system: T-47D breast
# [28] = test system: UACC-62 melanoma
# [29] = test system: ACHN renal
# [30] = test system: HOP-62 NSCLC
# [31] = test system: OVCAR-5 ovarian
# [32] = test system: SW-620 colon
# [33] = test system: HL-60(TB) leukemia
# [34] = test system: NCI/ADR-RES ovarian
# [35] = test system: SNB-19 CNS
# [36] = test system: SK-MEL-5 melanoma
# [37] = test system: NCI-H522 lung
# [38] = test system: MALME-3M melanoma
# [39] = test system: HOP-92 NSCLC
# [40] = test system: SK-MEL-2 melanoma
# [41] = test system: SK-OV-3 ovarian
# [42] = test system: BT-549 breast
# [43] = test system: KM12 colon
# [44] = test system: SK-MEL-28 melanoma
# [45] = test system: SN12C renal
# [46] = test system: OVCAR-3 ovarian
# [47] = test system: HCT-15 colon
# [48] = test system: HT29 colon
# [49] = test system: LOX IMVI melanoma
# [50] = test system: A549 NSCLC
# [51] = test system: NCI-H460 lung
# [52] = test system: HS 578T breast
# [53] = test system: RXF 393 renal
# [54] = test system: DU-145 prostate
# [55] = test system: OVCAR-8 ovarian
# [56] = test system: HCC-2998 colon
compound,measurement,setting,value
CCOC(=O)c1cc(C(=O)c2cc(OC)c(OC)c(OC)c2)n2c1ccc1ccccc12,GI50,[1],1.23 µM
same,TGI,[1],> 100 µM
same,GI50,[2],0.0604 µM
same,TGI,[2],> 100 µM
same,GI50,[3],2.37 µM
same,TGI,[3],> 100 µM
same,GI50,[4],0.477 µM
same,TGI,[4],> 100 µM
same,GI50,[5],0.322 µM
same,TGI,[5],> 100 µM
same,GI50,[6],0.353 µM
same,TGI,[6],> 100 µM
same,GI50,[7],0.294 µM
same,TGI,[7],> 100 µM
same,GI50,[8],0.0367 µM
same,TGI,[8],0.173 µM
same,GI50,[9],0.428 µM
same,TGI,[9],> 100 µM
same,GI50,[10],0.0599 µM
same,TGI,[10],0.617 µM
same,GI50,[11],0.0704 µM
same,TGI,[11],> 100 µM
same,GI50,[12],0.478 µM
same,TGI,[12],> 100 µM
same,GI50,[13],0.1 µM
same,TGI,[13],> 100 µM
same,GI50,[14],1.48 µM
same,TGI,[14],> 100 µM
same,GI50,[15],0.0717 µM
same,TGI,[15],> 100 µM
same,GI50,[16],0.271 µM
same,TGI,[16],> 100 µM
same,GI50,[17],0.378 µM
same,TGI,[17],> 100 µM
same,GI50,[18],2.27 µM
same,TGI,[18],> 100 µM
same,GI50,[19],0.26 µM
same,TGI,[19],1.94 µM
same,GI50,[20],0.0362 µM
same,TGI,[20],0.316 µM
same,GI50,[21],0.502 µM
same,TGI,[21],> 100 µM
same,GI50,[22],0.693 µM
same,TGI,[22],> 100 µM
same,GI50,[23],0.137 µM
same,TGI,[23],> 100 µM
same,GI50,[24],0.216 µM
same,TGI,[24],0.723 µM
same,GI50,[25],0.461 µM
same,TGI,[25],> 100 µM
same,GI50,[26],1.94 µM
same,TGI,[26],> 100 µM
same,GI50,[27],0.57 µM
same,TGI,[27],> 100 µM
same,GI50,[28],0.171 µM
same,TGI,[28],> 100 µM
same,GI50,[29],0.997 µM
same,TGI,[29],> 100 µM
same,GI50,[30],0.466 µM
same,TGI,[30],> 100 µM
same,GI50,[31],0.539 µM
same,TGI,[31],> 100 µM
same,GI50,[32],0.157 µM
same,TGI,[32],> 100 µM
same,GI50,[33],0.338 µM
same,TGI,[33],> 100 µM
same,GI50,[34],0.172 µM
same,TGI,[34],> 100 µM
same,GI50,[35],0.636 µM
same,TGI,[35],> 100 µM
same,GI50,[36],0.434 µM
same,TGI,[36],> 100 µM
same,GI50,[37],0.131 µM
same,GI50,[38],0.634 µM
same,TGI,[38],> 100 µM
same,GI50,[39],1.43 µM
same,TGI,[39],> 100 µM
same,GI50,[40],0.932 µM
same,TGI,[40],> 100 µM
same,GI50,[41],1.02 µM
same,TGI,[41],> 100 µM
same,GI50,[42],1.08 µM
same,TGI,[42],> 100 µM
same,GI50,[43],0.26 µM
same,TGI,[43],> 100 µM
same,GI50,[44],1.45 µM
same,TGI,[44],> 100 µM
same,GI50,[45],0.814 µM
same,TGI,[45],> 100 µM
same,GI50,[46],0.151 µM
same,TGI,[46],1.26 µM
same,GI50,[47],0.137 µM
same,TGI,[47],> 100 µM
same,GI50,[48],0.254 µM
same,GI50,[49],0.669 µM
same,TGI,[49],> 100 µM
same,GI50,[50],0.286 µM
same,TGI,[50],> 100 µM
same,GI50,[51],0.313 µM
same,TGI,[51],> 100 µM
same,GI50,[52],0.276 µM
same,TGI,[52],> 20.6 µM
same,GI50,[53],0.22 µM
same,TGI,[53],0.81 µM
same,GI50,[54],0.372 µM
same,TGI,[54],> 100 µM
same,GI50,[55],0.489 µM
same,TGI,[55],> 100 µM
same,GI50,[56],0.514 µM
same,TGI,[56],> 100 µM
